Data: article PMC12622905, “CYP71D8 and CYP82A2 catalyze the last committed step in biosynthesis of glyceollin isomers in soybean” (Plant Biotechnology, 2025)

What was measured:
[1] = target: T1, CYP71D106 (Glycine max, UniProt K7K4H7); assay: HPLC of glyceollin I formation, recombinant yeast microsomes; assay type: biochemical; settings: NADPH; potassium phosphate pH 7.5; 30°C, 5 h
T1 construct: gene LOC100817439; synthetic gene in pYES2 (BamHI site); recombinant yeast BJ2168 microsomes with Lotus japonicus CPR
T1 sequence (K7K4H7 1-503): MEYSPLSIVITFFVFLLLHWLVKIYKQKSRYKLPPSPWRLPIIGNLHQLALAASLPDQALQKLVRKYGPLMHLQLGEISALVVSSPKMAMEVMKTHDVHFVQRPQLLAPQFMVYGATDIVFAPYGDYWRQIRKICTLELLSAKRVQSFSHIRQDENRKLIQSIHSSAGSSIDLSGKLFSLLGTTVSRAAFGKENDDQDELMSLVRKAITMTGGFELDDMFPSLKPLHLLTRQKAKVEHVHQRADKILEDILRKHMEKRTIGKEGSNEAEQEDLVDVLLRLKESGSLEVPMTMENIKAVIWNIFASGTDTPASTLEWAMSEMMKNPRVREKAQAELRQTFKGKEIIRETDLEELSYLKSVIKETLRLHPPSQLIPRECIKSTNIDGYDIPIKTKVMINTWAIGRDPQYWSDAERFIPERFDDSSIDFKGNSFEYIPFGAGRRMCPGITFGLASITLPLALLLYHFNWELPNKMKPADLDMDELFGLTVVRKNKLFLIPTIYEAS

[2] = target: T2, CYP71D145 (Glycine max, UniProt A0A0R0HDK6); assay: as above; assay type: biochemical; settings: NADPH; potassium phosphate pH 7.5; 30°C, 5 h
T2 construct: gene GLYMA_11G062500; full ORF in pYES2.1 TOPO; recombinant yeast BJ2168 microsomes with Lotus japonicus CPR
T2 sequence (A0A0R0HDK6 1-505): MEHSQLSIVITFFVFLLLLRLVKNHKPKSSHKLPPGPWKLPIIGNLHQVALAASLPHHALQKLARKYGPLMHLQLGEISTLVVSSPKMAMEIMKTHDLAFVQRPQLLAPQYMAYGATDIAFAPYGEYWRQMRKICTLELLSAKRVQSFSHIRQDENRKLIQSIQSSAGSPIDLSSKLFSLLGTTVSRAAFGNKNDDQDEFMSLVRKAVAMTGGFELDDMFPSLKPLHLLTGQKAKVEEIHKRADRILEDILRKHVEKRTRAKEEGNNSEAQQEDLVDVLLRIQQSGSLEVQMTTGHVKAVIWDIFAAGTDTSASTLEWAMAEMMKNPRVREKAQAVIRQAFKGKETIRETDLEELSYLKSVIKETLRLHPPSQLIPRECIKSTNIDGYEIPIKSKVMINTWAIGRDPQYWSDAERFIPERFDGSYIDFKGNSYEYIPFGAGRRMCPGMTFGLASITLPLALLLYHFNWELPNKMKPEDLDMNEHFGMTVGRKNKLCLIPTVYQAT

[3] = target: T3, CYP82A24 (Glycine max, UniProt I1MI36); assay: HPLC of glyceollin III formation, recombinant yeast microsomes; assay type: biochemical; settings: NADPH; potassium phosphate pH 7.5; 30°C
T3 construct: gene LOC100782866; synthetic gene in pYES2 (BamHI site); recombinant yeast BJ2168 microsomes with Lotus japonicus CPR
T3 sequence (I1MI36 1-521): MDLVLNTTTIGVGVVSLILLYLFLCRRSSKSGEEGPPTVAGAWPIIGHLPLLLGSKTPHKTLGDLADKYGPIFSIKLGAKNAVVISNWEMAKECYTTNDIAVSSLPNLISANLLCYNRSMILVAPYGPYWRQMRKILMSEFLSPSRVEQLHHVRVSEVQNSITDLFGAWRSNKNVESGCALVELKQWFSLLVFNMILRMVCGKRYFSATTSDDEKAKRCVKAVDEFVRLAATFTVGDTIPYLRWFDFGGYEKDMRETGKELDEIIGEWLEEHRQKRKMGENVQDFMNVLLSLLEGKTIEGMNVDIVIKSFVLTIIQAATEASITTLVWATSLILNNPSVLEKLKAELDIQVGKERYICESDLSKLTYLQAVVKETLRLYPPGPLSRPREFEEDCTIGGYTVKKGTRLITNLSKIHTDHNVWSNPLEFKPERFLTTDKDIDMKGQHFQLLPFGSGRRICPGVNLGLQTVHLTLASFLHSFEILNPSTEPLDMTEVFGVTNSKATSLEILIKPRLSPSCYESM

[4] = substrate: CC(C)=CCc1cc2c(cc1O)OC[C@@]1(O)c3ccc(O)cc3O[C@@H]21; assay: HPLC of glyceollin III formation, recombinant yeast microsomes, Michaelis-Menten fit; assay type: biochemical, Glycine max; settings: 2 mM NADPH, 0.1 M potassium phosphate pH 7.5, 10% sucrose, 14 mM 2-mercaptoethanol, 30°C, 20 min
[5] = substrate: CC(C)=CCc1c(O)ccc2c1OC[C@@]1(O)c3ccc(O)cc3O[C@@H]21; assay: HPLC of glyceollin I formation, recombinant yeast microsomes, Michaelis-Menten fit; assay type: biochemical, Glycine max; settings: 2 mM NADPH, 0.1 M potassium phosphate pH 7.5, 10% sucrose, 14 mM 2-mercaptoethanol, 30°C, 20 min

CC(C)=CCc1c(O)ccc2c1OC[C@@]1(O)c3ccc(O)cc3O[C@@H]21 [4DG, 4-dimethylallylglycinol]
HPLC of glyceollin I formation, recombinant yeast microsomes [1]: CYP71D106 yielded glyceollin I and two other unknown compounds (P1 and P2)
HPLC of glyceollin I formation, recombinant yeast microsomes [2]: CYP71D145 produced only glyceollin I in the enzyme assay

CC(C)=CCc1cc2c(cc1O)OC[C@@]1(O)c3ccc(O)cc3O[C@@H]21 [2DG, 2-dimethylallylglycinol]
HPLC of glyceollin III formation, recombinant yeast microsomes [3]: CYP82A24 also exhibited GS3 activity with 2-dimethylallylglycinol

B1: CYP82A2 (GS3, glyceollin III synthase) (Glycine max) (protein)
chain: MELVLNSTTIGVGVVSLILLLYLFLRGGSWKSGEEGPPTVAGAWPIIGHLPLLLGSKTPHKTLGDLADKYGPIFSIKIGAKNAVVVSNWEMAKECYTTNDIAVSSLPDLISANLLCYNRSMIVVAPYGPYWRQLRKILMSEFLSPSRVEQLHHVRVSEVQSSITELFRDWRSNKNVQSGFATVELKQWFSLLVFNMILRMVCGKRYFSASTSDDEKANRCVKAVDEFVRLAATFTVGDAIPYLRWFDFGGYENDMRETGKELDEIIGEWLDEHRQKRKMGENVQDLMSVLLSLLEGKTIEGMNVDIVIKSFVLTVIQAGTEASITTLIWATSLILNNPSVLEKLKAELDIQVGKERYICESDLSKLTYLQAVVKETLRLYPPAPLSRPREFEEDCTIGGYTVKKGTRLITNLSKIHTDHNVWSNPLEFKPERFLTTDKDIDMKGQHFQLLPFGGGRRICPGINLGLQTVRLTLASFLHSFEILNPSTEPLDMTEVFRATNTKATPLEILIKPRLSPSCYESI
notes: full ORF in pYES2.1 TOPO; yeast BJ2168 microsomes co-expressing Lotus japonicus CPR
Km [4]: 9.5 ± 1.0 µM

B2: CYP71D8 (GS1, glyceollin I synthase) (Glycine max) (protein)
chain: MEYSPLSIVITFFVFLLLHWLVKTYKQKSSHKLPPGPWRLPIIGNLHQLALAASLPDQALQKLVRKYGPLMHLQLGEISTLVVSSPKMAMEMMKTHDVHFVQRPQLLAPQFMVYGATDIAFAPYGDYWRQIRKICTLELLSAKRVQSFSHIRQDENKKLIQSIHSSAGSPIDLSGKLFSLLGTTVSRAAFGKENDDQDEFMSLVRKAITMTGGFEVDDMFPSLKPLHLLTRQKAKVEHVHQRADKILEDILRKHMEKRTRVKEGNGSEAEQEDLVDVLLRLKESGSLEVPMTMENIKAVIWNIFAAGTDTSASTLEWAMSEMMKNPKVKEKAQAELRQIFKGKEIIRETDLEELSYLKSVIKETLRLHPPSQLIPRECIISTNIDGYEIPIKTKVMINTWAIGRDPQYWSDADRFIPERFNDSSIDFKGNSFEYIPFGAGRRMCPGMTFGLASITLPLALLLYHFNWELPNKMKPEDLDMDEHFGMTVARKNKLFLIPTVYEAS
notes: as for B1
Km [5]: 1.3 ± 0.2 µM
